Assay results as given in ChEMBL document CHEMBL3997783, “Synthesis and anti-acute myeloid leukemia activity of C-14 modified parthenolide derivatives” (Eur J Med Chem, 2017).

Test system: KG-1a
Assay: Cytotoxicity against human KG1a cells assessed as decrease in cell proliferation after 48 hrs by MTT assay
Format: functional, cell-based
Settings: not given

Row | Structure (SMILES) | IC50 [µM]
1 | C=C1C(=O)O[C@H]2[C@H]1CC/C(C(=O)N(CCC)CCC)=C\CC[C@@]1(C)O[C@@H]21 | 2
2 | C=C1C(=O)O[C@H]2[C@H]1CC/C(COC(=O)c1cccs1)=C\CC[C@@]1(C)O[C@@H]21 | 3.9
3 | C=C1C(=O)O[C@H]2[C@H]1CC/C(C(=O)N(CC)CC)=C\CC[C@@]1(C)O[C@@H]21 | 4.3
4 | C=C1C(=O)O[C@H]2[C@H]1CC/C(COCc1ccc(C(F)(F)F)cc1)=C\CC[C@@]1(C)O[C@@H]21 | 2.4
5 | C=C1C(=O)O[C@H]2[C@H]1CC/C(C(=O)N1CCC(C)CC1)=C\CC[C@@]1(C)O[C@@H]21 | 1.6
6 | C=C1C(=O)O[C@H]2[C@H]1CC/C(C(=O)N1CCN(C(=O)OC(C)(C)C)CC1)=C\CC[C@@]1(C)O[C@@H]21 | 1.7
7 | C=C1C(=O)O[C@H]2[C@H]1CC/C(C(=O)N1CCOCC1)=C\CC[C@@]1(C)O[C@@H]21 | 29.9
8 | C=C1C(=O)O[C@H]2[C@H]1CC/C(c1nc3ccccc3s1)=C\CC[C@@]1(C)O[C@@H]21 | 5.1
9 | C=C1C(=O)O[C@H]2[C@H]1CC/C(COC(=O)c1ccc(C(F)(F)F)cc1)=C\CC[C@@]1(C)O[C@@H]21 | 4
10 | C=C1C(=O)O[C@H]2[C@H]1CC/C(COC(=O)CCCCCC)=C\CC[C@@]1(C)O[C@@H]21 | 5.8
11 | C=C1C(=O)O[C@H]2[C@H]1CC/C(C(=O)N1CCCCC1)=C\CC[C@@]1(C)O[C@@H]21 | 3.2
12 | C=C1C(=O)O[C@H]2[C@H]1CC/C(C(=O)O)=C\CC[C@@]1(C)O[C@@H]21 | > 50
13 | C=C1C(=O)O[C@H]2[C@H]1CC/C(COC(C)=O)=C\CC[C@@]1(C)O[C@@H]21 | 6.3
14 | C=C1C(=O)O[C@H]2[C@H]1CC/C(C(=O)N(CCCC)CCCC)=C\CC[C@@]1(C)O[C@@H]21 | 1.4
15 | C=C1C(=O)O[C@H]2[C@H]1CC/C(C(=O)N(C)C)=C\CC[C@@]1(C)O[C@@H]21 | 6.1
16 | COc1cccc2c1C(=O)c1c(O)c3c(c(O)c1C2=O)C[C@@](O)(C(=O)CO)C[C@@H]3O[C@H]1C[C@H](N)[C@H](O)[C@H](C)O1.Cl [DOXORUBICIN HYDROCHLORIDE] | 0.08
17 | C=C1C(=O)O[C@H]2[C@H]1CC/C(CO)=C\CC[C@@]1(C)O[C@@H]21 | 6.8
18 | C=C1C(=O)O[C@H]2[C@H]1CC/C(COC(=O)c1ccc(OC)cc1)=C\CC[C@@]1(C)O[C@@H]21 | 5.3

Test system: HL-60
Assay: Cytotoxicity against human HL60 cells assessed as decrease in cell proliferation after 48 hrs by MTT assay
Format: functional, cell-based
Settings: HL-60, 48 h

Row | Structure (SMILES) | IC50 [µM]
19 | C=C1C(=O)O[C@H]2[C@H]1CC/C(C(=O)N(CCC)CCC)=C\CC[C@@]1(C)O[C@@H]21 | 1
20 | C=C1C(=O)O[C@H]2[C@H]1CC/C(COC(=O)c1cccs1)=C\CC[C@@]1(C)O[C@@H]21 | 1.7
21 | C=C1C(=O)O[C@H]2[C@H]1CC/C(C(=O)N(CC)CC)=C\CC[C@@]1(C)O[C@@H]21 | 2.7
22 | C=C1C(=O)O[C@H]2[C@H]1CC/C(COCc1ccc(C(F)(F)F)cc1)=C\CC[C@@]1(C)O[C@@H]21 | 1.9
23 | C=C1C(=O)O[C@H]2[C@H]1CC/C(C(=O)N1CCC(C)CC1)=C\CC[C@@]1(C)O[C@@H]21 | 6.3
24 | C=C1C(=O)O[C@H]2[C@H]1CC/C(C(=O)N1CCN(C(=O)OC(C)(C)C)CC1)=C\CC[C@@]1(C)O[C@@H]21 | 5.1
25 | C=C1C(=O)O[C@H]2[C@H]1CC/C(C(=O)N1CCOCC1)=C\CC[C@@]1(C)O[C@@H]21 | 3.9
26 | C=C1C(=O)O[C@H]2[C@H]1CC/C(c1nc3ccccc3s1)=C\CC[C@@]1(C)O[C@@H]21 | 8.2
27 | C=C1C(=O)O[C@H]2[C@H]1CC/C(COC(=O)c1ccc(C(F)(F)F)cc1)=C\CC[C@@]1(C)O[C@@H]21 | 2.3
28 | C=C1C(=O)O[C@H]2[C@H]1CC/C(COC(=O)CCCCCC)=C\CC[C@@]1(C)O[C@@H]21 | 6
29 | C=C1C(=O)O[C@H]2[C@H]1CC/C(C(=O)N1CCCCC1)=C\CC[C@@]1(C)O[C@@H]21 | 1.8
30 | C=C1C(=O)O[C@H]2[C@H]1CC/C(C(=O)O)=C\CC[C@@]1(C)O[C@@H]21 | > 50
31 | C=C1C(=O)O[C@H]2[C@H]1CC/C(COC(C)=O)=C\CC[C@@]1(C)O[C@@H]21 | 2.8
32 | C=C1C(=O)O[C@H]2[C@H]1CC/C(C(=O)N(CCCC)CCCC)=C\CC[C@@]1(C)O[C@@H]21 | 3.7
33 | C=C1C(=O)O[C@H]2[C@H]1CC/C(C(=O)N(C)C)=C\CC[C@@]1(C)O[C@@H]21 | 1.3
34 | COc1cccc2c1C(=O)c1c(O)c3c(c(O)c1C2=O)C[C@@](O)(C(=O)CO)C[C@@H]3O[C@H]1C[C@H](N)[C@H](O)[C@H](C)O1.Cl [DOXORUBICIN HYDROCHLORIDE] | 0.019
35 | C=C1C(=O)O[C@H]2[C@H]1CC/C(CO)=C\CC[C@@]1(C)O[C@@H]21 | 10.3
36 | C=C1C(=O)O[C@H]2[C@H]1CC/C(COC(=O)c1ccc(OC)cc1)=C\CC[C@@]1(C)O[C@@H]21 | 2.1

Test system: not listed separately
Assay: Selectivity ratio of IC50 for human KG1a cells to IC50 for human HL60 cells
Format: functional
Settings: not given

Row | Structure (SMILES) | Ratio IC50
37 | COc1cccc2c1C(=O)c1c(O)c3c(c(O)c1C2=O)C[C@@](O)(C(=O)CO)C[C@@H]3O[C@H]1C[C@H](N)[C@H](O)[C@H](C)O1.Cl [DOXORUBICIN HYDROCHLORIDE] | 4
